Ahx = NCCCCCC(=O)O; Fl = fluorescein
Test system: human T cell line, Jurkat
Test: cellular uptake assay of fluorescently labeled peptides (flow cytometry, mean fluorescent signal)
Type: cell-based
Settings: FIG. 1; single amino acid spacing without side chains (glycine, abu, aca); Jurkat cells
Protocol: The fluorescently labeled peptides were dissolved in PBS, pH 7.2, and their concentrations were determined by absorption of fluorescein at 490 nm (ε=67,000). The human T cell line, Jurkat, grown in 10% fetal calf serum in DMEM, was used for all the cellular uptake experiments. Varying amounts of the peptides were added to 3×10^5 cells in a total of 200λ, in wells of microtiter plates, and incubated for varying periods of time, ranging from three to five minutes. The cells were spun, washed three times with cold PBS, incubated with 0.05% trypsin/0.53 mM EDTA (Gibco, Grand Island, N.Y.) at 37° C. for five minutes, washed with PBS, and resuspended in PBS containing 0.1% propidium iodide. The cells were analyzed either using confocal microscopy or fluorescent flow cytometry (FACScan, Becton Dickinson, Milpitas, Calif.). Cells staining with propidium iodide were excluded from the analysis. Data presented is the mean fluorescent signal for the 5000 cells collected. To prevent cellular uptake of the peptides, the cells were treated with sodium azide (1.0%) for 25 minutes prior to exposure to the peptides.

Compound | cellular uptake of spaced arginine transport moieties tethered to fluorescein, relative to R7 homopolymer
Fl-aca-RGRRGRRGRR-CONH2 [Seq. I.D. No. 4] | ε-aminocaproic acid>γ-aminobutyric acid>glycine
Fl-aca-RabuRRabuRRabuRR-CONH2 [Seq. I.D. No. 5] | ε-aminocaproic acid>γ-aminobutyric acid>glycine
Fl-aca-RacaRRacaRRacaRR-CONH2 [Seq. I.D. No. 6] | ε-aminocaproic acid>γ-aminobutyric acid>glycine

Same assay, conditions: FIG. 2; spacing by naturally occurring amino acids; fluorescein conjugates; Jurkat cells

Compound | cellular uptake relative to the homopolymer R7 having no spacing
N[C@@H](CC(=O)O)C(=O)O [Seq. I.D. No. 8] | Reduced, or comparable uptake
N[C@@H](CCC(=O)O)C(=O)O [Seq. I.D. No. 9] | Reduced, or comparable uptake
N[C@@H](Cc1c[nH]cn1)C(=O)O [Seq. I.D. No. 11] | increase in cellular uptake was found
CC[C@H](C)[C@H](N)C(=O)O [Seq. I.D. No. 12] | increase in cellular uptake was found
NCCCC[C@H](N)C(=O)O [Seq. I.D. No. 13] | increase in cellular uptake was found
NC(=O)CC[C@H](N)C(=O)O [Seq. I.D. No. 18] | increase in cellular uptake was found
C[C@@H](O)[C@H](N)C(=O)O [Seq. I.D. No. 20] | increase in cellular uptake was found
N[C@@H](Cc1ccc(O)cc1)C(=O)O [Seq. I.D. No. 22] | Reduced, or comparable uptake
Fl-aca-RARRARRARR-CONH2 [Seq. I.D. No. 7] | increase in cellular uptake was found
Fl-aca-RFRRFRRFRR-CONH2 ({Fl-Ahx}-RFRRFRRFRR-NH2) [Seq. I.D. No. 10] | increase in cellular uptake was found
Fl-aca-RGRRGRRGRR-CONH2 [Seq. I.D. No. 4] | increase in cellular uptake was found
Fl-aca-RMRRMRRMRR-CONH2 [Seq. I.D. No. 15] | increase in cellular uptake was found
Fl-aca-RNRRNRRNRR-CONH2 [Seq. I.D. No. 16] | increase in cellular uptake was found
Fl-aca-RPRRPRRPRR-CONH2 [Seq. I.D. No. 17] | increase in cellular uptake was found
Fl-aca-RSRRSRRSRR-CONH2 [Seq. I.D. No. 19] | increase in cellular uptake was found
Fl-aca-RVRRVRRVRR-CONH2 [Seq. I.D. No. 21] | increase in cellular uptake was found

Same assay, conditions: FIG. 4; 6.25 μM; Jurkat cells

Compound | cellular uptake at the lower concentration
Fl-aca-R7CONH2 [Seq. I.D. No. 2, reference compound] | begins to drop off

Same assay, conditions: FIG. 6; compared with (RX)6R, X = aca, gly-gly or gly; Jurkat cells

Compound | uptake (mean fluorescence) of (RX)6R transport oligomers versus homopolymers of D-arginine
Fl-aca-r13-CONH2 [Seq. I.D. No. 28, reference compound] | significantly less effective in entering the cells
Fl-aca-r19-CONH2 [Seq. I.D. No. 29, reference compound] | significantly less effective in entering the cells

From patent publication US7585834B2, “Transporters comprising spaced arginine moieties” (The Board of Trustees of the Leland Stanford Junior …, priority 2001, dated 2009)
